Source: patent US20220071996A1, “ORAL FORMULATIONS OF BRANAPLAM” (NOVARTIS AG, priority 2018, published 2022)
Values after ≈ are worked out from the molar mass of the structure shown. Where two headings read alike, the source gives them in different places.

Test: solubility of branaplam in selected excipients
Assay type: physicochemical
Conditions: pH 4, aqueous with cosolvent or surfactant or cyclodextrin, thermodynamic from solid
Experimental: Solubility of branaplam was evaluated in excipients, other than cyclodextrin, such as Cremophor RH40, Tween 80, PG, PEG300, and glycerol. These excipients and concentrations were selected as they are suitable for paediatric formulations. None of the tested excipients was able to support development of a formulation comprising branaplam at a concentration high enough (i.e. about 2 mg/ml or higher) to keep the dose volume in a suitable range (Table 6).
Solubility of branaplam was evaluated in excipients, other than cyclodextrin, such as Cremophor RH40, Tween 80, PG, PEG300, and glycerol. These excipients and concentrations were selected as they are suitable for paediatric formulations. None of the tested excipients was able to support development of a formulation comprising branaplam at a concentration high enough (i.e. about 2 mg/ml or higher) to keep the dose volume in a suitable range (Table 5a).
Solubility of branaplam was measured as follows: stock solutions for the excipients at target concentrations were prepared using milli-Q water and adjusted using pH 4.0 buffer. […] Suspensions were stirred for 24 hours (using a magnetic stirrer) ensuring sufficient swirling and monitoring the temperature. The suspensions were filtered through 0.45 μm nominal pore size filter (e.g. using a PES syringe), and the concentration of branaplam in the filtrate was measured using HPLC (high performance liquid chromatography). The measurements were performed in duplicate and average of the values are reported.

For `CC1(C)CC(Oc2ccc(-c3ccc(-c4cn[nH]c4)cc3O)nn2)CC(C)(C)N1` [branaplam, 5-(1H-pyrazol-4-yl)-2-(6-((2,2,6,6-tetramethylpiperidin-4-yl)oxy)pyridazin-3-yl)phenol], which solubility at 24 h (aqueous excipient solution, 25 °C, in Tween 80 5.0% (w/w), RT, read-out: Solubility (mg/mL) RT) is on record?
Its solubility at 24 h is 0.89 mg/mL (≈ 2260 µM).

And the solubility at 24 h (aqueous excipient stock solution, 2 °C, in Cremophor RH 40 1.0% (w/w), 2-8° C., read-out: Solubility (mg/mL) 2-8° C.)?
The solubility at 24 h was 0.17 mg/mL (≈ 432 µM).

What about the solubility at 24 h (aqueous excipient stock solution, 2 °C, in Cremophor RH 40 3.5% (w/w), 2-8° C., read-out: Solubility (mg/mL) 2-8° C.) of the same molecule?
The solubility at 24 h was 0.44 mg/mL (≈ 1120 µM).

What about the solubility at 24 h (aqueous excipient stock solution, 2 °C, in Cremophor RH 40 7.0% (w/w), 2-8° C., read-out: Solubility (mg/mL) 2-8° C.) of the same molecule?
The solubility at 24 h was 0.71 mg/mL (≈ 1800 µM).

And the solubility at 24 h (aqueous excipient stock solution, 2 °C, in Cremophor RH 40 15.0% (w/w), 2-8° C., read-out: Solubility (mg/mL) 2-8° C.)?
Its solubility at 24 h is 1.19 mg/mL (≈ 3020 µM).

And the solubility at 24 h (aqueous excipient stock solution, 2 °C, in Glycerol 5.0% (w/v), pH 4.0 buffer, 2-8° C., read-out: Solubility (mg/mL) 2-8° C.)?
Its solubility at 24 h is 0.2 mg/mL (≈ 508 µM).

What about the solubility at 24 h (aqueous excipient stock solution, 2 °C, in Glycerol 10.0% (w/v), pH 4.0 buffer, 2-8° C., read-out: Solubility (mg/mL) 2-8° C.) of the same molecule?
Its solubility at 24 h is 0.19 mg/mL (≈ 483 µM).

And the solubility at 24 h (aqueous excipient stock solution, 2 °C, in Glycerol 25.0% (w/w), 2-8° C., read-out: Solubility (mg/mL) 2-8° C.)?
Its solubility at 24 h is 0.37 mg/mL (≈ 940 µM).

What about the solubility at 24 h (aqueous excipient stock solution, 2 °C, in PEG 300 5.0% (w/v), pH 4.0 buffer, 2-8° C., read-out: Solubility (mg/mL) 2-8° C.) of the same molecule?
Its solubility at 24 h is 0.27 mg/mL (≈ 686 µM).

And the solubility at 24 h (aqueous excipient stock solution, 2 °C, in PEG 300 10.0% (w/v), pH 4.0 buffer, 2-8° C., read-out: Solubility (mg/mL) 2-8° C.)?
The solubility at 24 h was 0.34 mg/mL (≈ 864 µM).

What about the solubility at 24 h (aqueous excipient stock solution, 2 °C, in PEG 300 25.0% (w/v), pH 4.0 buffer, 2-8° C., read-out: Solubility (mg/mL) 2-8° C.) of the same molecule?
The solubility at 24 h was 0.87 mg/mL (≈ 2210 µM).

And the solubility at 24 h (aqueous excipient stock solution, 2 °C, in PEG 400 5.0% (w/v), pH 4.0 buffer, 2-8° C., read-out: Solubility (mg/mL) 2-8° C.)?
The solubility at 24 h was 0.21 mg/mL (≈ 534 µM).

What about the solubility at 24 h (aqueous excipient stock solution, 2 °C, in PEG 400 10.0% (w/v), pH 4.0 buffer, 2-8° C., read-out: Solubility (mg/mL) 2-8° C.) of the same molecule?
The solubility at 24 h was 0.45 mg/mL (≈ 1140 µM).

And the solubility at 24 h (aqueous excipient stock solution, 2 °C, in PEG 400 25.0% (w/v), pH 4.0 buffer, 2-8° C., read-out: Solubility (mg/mL) 2-8° C.)?
The solubility at 24 h was 0.93 mg/mL (≈ 2360 µM).

And the solubility at 24 h (aqueous excipient stock solution, 2 °C, in Propylene glycol 5.0% (w/v), pH 4.0 buffer, 2-8° C., read-out: Solubility (mg/mL) 2-8° C.)?
The solubility at 24 h was 0.16 mg/mL (≈ 407 µM).

And the solubility at 24 h (aqueous excipient stock solution, 2 °C, in Propylene glycol 10.0% (w/v), pH 4.0 buffer, 2-8° C., read-out: Solubility (mg/mL) 2-8° C.)?
The solubility at 24 h was 0.18 mg/mL (≈ 457 µM).

What about the solubility at 24 h (aqueous excipient stock solution, 2 °C, in Propylene glycol 25.0% (w/v), pH 4.0 buffer, 2-8° C., read-out: Solubility (mg/mL) 2-8° C.) of the same molecule?
The solubility at 24 h was 0.42 mg/mL (≈ 1070 µM).

And the solubility at 24 h (aqueous excipient stock solution, 2 °C, in Tween 80 0.5% (w/v), pH 4.0 buffer, 2-8° C., read-out: Solubility (mg/mL) 2-8° C.)?
The solubility at 24 h was 0.16 mg/mL (≈ 407 µM).

And the solubility at 24 h (aqueous excipient stock solution, 2 °C, in Tween 80 0.8% (w/v), pH 4.0 buffer, 2-8° C., read-out: Solubility (mg/mL) 2-8° C.)?
Its solubility at 24 h is 0.22 mg/mL (≈ 559 µM).

What about the solubility at 24 h (aqueous excipient stock solution, 2 °C, in Tween 80 1.5% (w/v), pH 4.0 buffer, 2-8° C., read-out: Solubility (mg/mL) 2-8° C.) of the same molecule?
The solubility at 24 h was 0.29 mg/mL (≈ 737 µM).

And the solubility at 24 h (aqueous excipient stock solution, 2 °C, in Tween 80 5.0% (w/v), pH 4.0 buffer, 2-8° C., read-out: Solubility (mg/mL) 2-8° C.)?
The solubility at 24 h was 0.73 mg/mL (≈ 1860 µM).

And the solubility at 24 h (aqueous excipient stock solution, 25 °C, in Cremophor RH 40 1.0% (w/w), RT, read-out: Solubility (mg/mL) RT)?
Its solubility at 24 h is 0.28 mg/mL (≈ 712 µM).

And the solubility at 24 h (aqueous excipient stock solution, 25 °C, in Cremophor RH 40 3.5% (w/w), RT, read-out: Solubility (mg/mL) RT)?
Its solubility at 24 h is 0.53 mg/mL (≈ 1350 µM).

And the solubility at 24 h (aqueous excipient stock solution, 25 °C, in Cremophor RH 40 7.0% (w/w), RT, read-out: Solubility (mg/mL) RT)?
Its solubility at 24 h is 0.84 mg/mL (≈ 2130 µM).

And the solubility at 24 h (aqueous excipient stock solution, 25 °C, in Cremophor RH 40 15.0% (w/w), RT, read-out: Solubility (mg/mL) RT)?
The solubility at 24 h was 1.32 mg/mL (≈ 3350 µM).

And the solubility at 24 h (aqueous excipient stock solution, 25 °C, in Glycerol 5.0% (w/v), pH 4.0 buffer, RT, read-out: Solubility (mg/mL) RT)?
Its solubility at 24 h is 0.18 mg/mL (≈ 457 µM).

And the solubility at 24 h (aqueous excipient stock solution, 25 °C, in Glycerol 10.0% (w/v), pH 4.0 buffer, RT, read-out: Solubility (mg/mL) RT)?
Its solubility at 24 h is 0.22 mg/mL (≈ 559 µM).

What about the solubility at 24 h (aqueous excipient stock solution, 25 °C, in Glycerol 25.0% (w/w), RT, read-out: Solubility (mg/mL) RT) of the same molecule?
The solubility at 24 h was 0.38 mg/mL (≈ 966 µM).

And the solubility at 24 h (aqueous excipient stock solution, 25 °C, in PEG 300 5.0% (w/v), pH 4.0 buffer, RT, read-out: Solubility (mg/mL) RT)?
The solubility at 24 h was 0.39 mg/mL (≈ 991 µM).

What about the solubility at 24 h (aqueous excipient stock solution, 25 °C, in PEG 300 10.0% (w/v), pH 4.0 buffer, RT, read-out: Solubility (mg/mL) RT) of the same molecule?
Its solubility at 24 h is 0.64 mg/mL (≈ 1630 µM).

What about the solubility at 24 h (aqueous excipient stock solution, 25 °C, in PEG 300 25.0% (w/v), pH 4.0 buffer, RT, read-out: Solubility (mg/mL) RT) of the same molecule?
Its solubility at 24 h is 1.61 mg/mL (≈ 4090 µM).

And the solubility at 24 h (aqueous excipient stock solution, 25 °C, in PEG 400 5.0% (w/v), pH 4.0 buffer, RT, read-out: Solubility (mg/mL) RT)?
The solubility at 24 h was 0.39 mg/mL (≈ 991 µM).

What about the solubility at 24 h (aqueous excipient stock solution, 25 °C, in PEG 400 10.0% (w/v), pH 4.0 buffer, RT, read-out: Solubility (mg/mL) RT) of the same molecule?
Its solubility at 24 h is 0.63 mg/mL (≈ 1600 µM).

What about the solubility at 24 h (aqueous excipient stock solution, 25 °C, in PEG 400 25.0% (w/v), pH 4.0 buffer, RT, read-out: Solubility (mg/mL) RT) of the same molecule?
The solubility at 24 h was 1.47 mg/mL (≈ 3740 µM).

And the solubility at 24 h (aqueous excipient stock solution, 25 °C, in Propylene glycol 5.0% (w/v), pH 4.0 buffer, RT, read-out: Solubility (mg/mL) RT)?
The solubility at 24 h was 0.27 mg/mL (≈ 686 µM).

And the solubility at 24 h (aqueous excipient stock solution, 25 °C, in Propylene glycol 10.0% (w/v), pH 4.0 buffer, RT, read-out: Solubility (mg/mL) RT)?
Its solubility at 24 h is 0.37 mg/mL (≈ 940 µM).

What about the solubility at 24 h (aqueous excipient stock solution, 25 °C, in Propylene glycol 25.0% (w/v), pH 4.0 buffer, RT, read-out: Solubility (mg/mL) RT) of the same molecule?
Its solubility at 24 h is 0.94 mg/mL (≈ 2390 µM).

And the solubility at 24 h (aqueous excipient stock solution, 25 °C, in Tween 80 0.5% (w/v), pH 4.0 buffer, RT, read-out: Solubility (mg/mL) RT)?
The solubility at 24 h was 0.25 mg/mL (≈ 635 µM).

And the solubility at 24 h (aqueous excipient stock solution, 25 °C, in Tween 80 0.8% (w/v), pH 4.0 buffer, RT, read-out: Solubility (mg/mL) RT)?
Its solubility at 24 h is 0.28 mg/mL (≈ 712 µM).

And the solubility at 24 h (aqueous excipient stock solution, 25 °C, in Tween 80 1.5% (w/v), pH 4.0 buffer, RT, read-out: Solubility (mg/mL) RT)?
The solubility at 24 h was 0.41 mg/mL (≈ 1040 µM).

What about the solubility at 24 h (aqueous excipient stock solution, 25 °C, in Tween 80 5.0% (w/v), pH 4.0 buffer, RT, read-out: Solubility (mg/mL) RT) of the same molecule?
Its solubility at 24 h is 0.89 mg/mL (≈ 2260 µM).

What about the solubility at 24 h (glycerol 25.0% (w/v) aqueous solution in pH 4.0 buffer, 2 °C, in Glycerol 25.0% (w/v), pH 4.0 buffer, 2-8° C., read-out: Solubility (mg/mL) 2-8° C.) of the same molecule?
Its solubility at 24 h is 0.37 mg/mL (≈ 940 µM).

What about the solubility at 24 h (glycerol 25.0% (w/v) aqueous solution in pH 4.0 buffer, 25 °C, in Glycerol 25.0% (w/v), pH 4.0 buffer, RT, read-out: Solubility (mg/mL) RT) of the same molecule?
Its solubility at 24 h is 0.38 mg/mL (≈ 966 µM).
